Data as given in publication PMC10689823, “Discovery of a Drug-like, Natural Product-Inspired DCAF11 Ligand Chemotype” (Nature Communications, 2023).

Molecular target: BRD4S-TagBFP reporter (Homo sapiens, UniProt O60885)
Assay: FACS-based CRISPR/Cas9 BRD4 protein stability screen
Experimental: The virus containing supernatant was cleared of cellular debris by filtration through a 0.45-µm PES filter and used to transduce KBM7 BRD4-BFP reporter cells harboring a doxycycline inducible Cas9 allele at a multiplicity of infection (MOI) of 0.05 and 1,000-fold library representation. Library-transduced cells were selected with G418 (1 mg ml^−1, Gibco) for 14 days, expanded and Cas9 expression was induced with DOX (0.4 µg ml^−1, PanReac AppliChem).
Cells were washed with and stored in FACS buffer (PBS containing 5% FBS and 1 mM EDTA) at 4 °C overnight. The next day, cells were strained trough a 35 µm nylon mesh and sorted on a BD FACSAria™ Fusion (BD Biosciences) using a 85 µm nozzle. Aggregates, dead (ZombieNIR positive), Cas9-negative (GFP) and sgRNA library-negative (Thy1.1-APC) cells were excluded, and the remaining cells were sorted based on their BRD4-BFP and mCherry levels into BRD4^HIGH (10% of cells), BRD4^MID (30%) and BRD4^LOW (10%) fractions. For each sample, cells corresponding to at least 2,000-fold library representation were sorted per replicate.
Next-generation sequencing (NGS) libraries of sorted cell fractions were prepared as previously described[25]. In brief, genomic DNA was isolated by cell lysis (10 mM Tris-HCl, 150 mM NaCl, 10 mM EDTA, 0.1% SDS), proteinase K treatment (New England Biolabs) and DNAse-free RNAse digest (Thermo Fisher Scientific), followed by two rounds of phenol extraction and 2-propanol precipitation. Isolated genomic DNA was subjected to several freeze–thaw cycles before nested polymerase chain reaction (PCR) amplification of the sgRNA cassette.
Barcoded NGS libraries for each sorted population were generated using a two-step PCR protocol using AmpliTaq Gold (Invitrogen). The resulting PCR products were purified using Mag-Bind® TotalPure NGS beads (Omega Bio-tek) and amplified in a second PCR introducing the standard Illumina adapters. The final Illumina libraries were bead-purified, pooled and sequenced on a HiSeq 3500 platform (Illumina).
Screen analysis was performed as previously described[25]. Briefly, sequencing reads were quantified using the crispr-process-nf Nextflow workflow, available at https://github.com/ZuberLab/crispr-process-nf/tree/566f6d46bbcc2a3f49f51bbc96b9820f408ec4a3. For statistical analysis, we used the crispr-mageck-nf Nextflow workflow, available at https://github.com/ZuberLab/crispr-mageck-nf/tree/c75a90f670698bfa78bfd8be786d6e5d6d4fc455. To calculate gene-level enrichment, the sorted populations (BRD4^HIGH or BRD4^LOW) were compared to the BRD4^MID populations in MAGeCK (0.5.9)[46], using median normalized read counts.

Cc1sc2c(c1C)C(c1ccc(Cl)cc1)=N[C@@H](CC(=O)NCCOCCOCCOCCOCCNC(=O)COc1c(Br)cc(/C=C3\C(=O)Nc4ccc(Br)cc43)cc1Br)c1nnc(C)n1-2 [Compound 9]
Low_lfc (Gene FBXL18, Mageck_Gene level): 0.05 | Low_logP (Gene FBXL18, Mageck_Gene level): 0.07 | High_lfc (Gene FBXL19, Mageck_Gene level): -0.41 | High_logP (Gene FBXL19, Mageck_Gene level): 0 | Low_lfc (Gene FBXL19, Mageck_Gene level): 0.11 | Low_logP (Gene FBXL19, Mageck_Gene level): 0.48 | High_lfc (Gene FBXL20, Mageck_Gene level): -0.06 | High_logP (Gene FBXL20, Mageck_Gene level): 0.09 | Low_lfc (Gene FBXL20, Mageck_Gene level): -0.11 | Low_logP (Gene FBXL20, Mageck_Gene level): 0.04 | High_lfc (Gene FBXL21, Mageck_Gene level): -0.29 | High_logP (Gene FBXL21, Mageck_Gene level): 0.09 | Low_lfc (Gene FBXL21, Mageck_Gene level): -0.29 | Low_logP (Gene FBXL21, Mageck_Gene level): 0.01 | High_lfc (Gene FBXL22, Mageck_Gene level): 0.14 | High_logP (Gene FBXL22, Mageck_Gene level): 0.24 | Low_lfc (Gene FBXL22, Mageck_Gene level): 0.36 | Low_logP (Gene FBXL22, Mageck_Gene level): 0.63 | High_lfc (Gene FBXO2, Mageck_Gene level): -0.09 | High_logP (Gene FBXO2, Mageck_Gene level): 0.03 | Low_lfc (Gene FBXO2, Mageck_Gene level): 0.42 | Low_logP (Gene FBXO2, Mageck_Gene level): 1.6 | High_lfc (Gene FBXO10, Mageck_Gene level): 0.22 | High_logP (Gene FBXO10, Mageck_Gene level): 0.52 | Low_lfc (Gene FBXO10, Mageck_Gene level): -0.18 | Low_logP (Gene FBXO10, Mageck_Gene level): 0.08 | High_lfc (Gene FBXO11, Mageck_Gene level): -0.38 | High_logP (Gene FBXO11, Mageck_Gene level): 0.01 | Low_lfc (Gene FBXO11, Mageck_Gene level): -0.03 | Low_logP (Gene FBXO11, Mageck_Gene level): 0.19 | High_lfc (Gene FBXO15, Mageck_Gene level): -0.34 | High_logP (Gene FBXO15, Mageck_Gene level): 0.01 | Low_lfc (Gene FBXO15, Mageck_Gene level): -0.22 | Low_logP (Gene FBXO15, Mageck_Gene level): 0.07 | High_lfc (Gene FBXO16, Mageck_Gene level): -0.28 | High_logP (Gene FBXO16, Mageck_Gene level): 0.17 | Low_lfc (Gene FBXO16, Mageck_Gene level): -0.34 | Low_logP (Gene FBXO16, Mageck_Gene level): 0.13 | High_lfc (Gene FBXO17, Mageck_Gene level): 0.05 | High_logP (Gene FBXO17, Mageck_Gene level): 0.04 | Low_lfc (Gene FBXO17, Mageck_Gene level): -0.01 | Low_logP (Gene FBXO17, Mageck_Gene level): 0.24 | High_lfc (Gene FBXO18, Mageck_Gene level): 0.01 | High_logP (Gene FBXO18, Mageck_Gene level): 0.35 | Low_lfc (Gene FBXO18, Mageck_Gene level): -0.24 | Low_logP (Gene FBXO18, Mageck_Gene level): 0.06 | High_lfc (Gene FBXO21, Mageck_Gene level): -0.09 | High_logP (Gene FBXO21, Mageck_Gene level): 0.15 | Low_lfc (Gene FBXO21, Mageck_Gene level): 0.26 | Low_logP (Gene FBXO21, Mageck_Gene level): 0.57 | High_lfc (Gene FBXO22, Mageck_Gene level): 0.33 | High_logP (Gene FBXO22, Mageck_Gene level): 0.56 | Low_lfc (Gene FBXO22, Mageck_Gene level): 0.08 | Low_logP (Gene FBXO22, Mageck_Gene level): 0.24 | High_lfc (Gene FBXO24, Mageck_Gene level): 0.01 | High_logP (Gene FBXO24, Mageck_Gene level): 0.17 | Low_lfc (Gene FBXO24, Mageck_Gene level): 0.28 | Low_logP (Gene FBXO24, Mageck_Gene level): 0.95 | High_lfc (Gene FBXO25, Mageck_Gene level): -0.09 | High_logP (Gene FBXO25, Mageck_Gene level): 0.13 | Low_lfc (Gene FBXO25, Mageck_Gene level): -0.06 | Low_logP (Gene FBXO25, Mageck_Gene level): 1.23 | High_lfc (Gene FBXO27, Mageck_Gene level): 0.07 | High_logP (Gene FBXO27, Mageck_Gene level): 0.26 | Low_lfc (Gene FBXO27, Mageck_Gene level): 0.17 | Low_logP (Gene FBXO27, Mageck_Gene level): 0.61 | High_lfc (Gene FBXO28, Mageck_Gene level): 0.25 | High_logP (Gene FBXO28, Mageck_Gene level): 0.91 | Low_lfc (Gene FBXO28, Mageck_Gene level): -0.03 | Low_logP (Gene FBXO28, Mageck_Gene level): 0.09 | High_lfc (Gene FBXO30, Mageck_Gene level): -0.15 | High_logP (Gene FBXO30, Mageck_Gene level): 0.06 | Low_lfc (Gene FBXO30, Mageck_Gene level): 0.12 | Low_logP (Gene FBXO30, Mageck_Gene level): 0.2 | High_lfc (Gene FBXO31, Mageck_Gene level): 0.02 | High_logP (Gene FBXO31, Mageck_Gene level): 0.11 | Low_lfc (Gene FBXO31, Mageck_Gene level): 0.28 | Low_logP (Gene FBXO31, Mageck_Gene level): 0.85 | High_lfc (Gene FBXO32, Mageck_Gene level): 0.06 | High_logP (Gene FBXO32, Mageck_Gene level): 0.14 | Low_lfc (Gene FBXO32, Mageck_Gene level): 0.27 | Low_logP (Gene FBXO32, Mageck_Gene level): 0.47 | High_lfc (Gene FBXO33, Mageck_Gene level): -0.49 | High_logP (Gene FBXO33, Mageck_Gene level): 0 | Low_lfc (Gene FBXO33, Mageck_Gene level): 0.19 | Low_logP (Gene FBXO33, Mageck_Gene level): 0.87 | High_lfc (Gene FBXO34, Mageck_Gene level): 0.22 | High_logP (Gene FBXO34, Mageck_Gene level): 0.61 | Low_lfc (Gene FBXO34, Mageck_Gene level): 0.1 | Low_logP (Gene FBXO34, Mageck_Gene level): 0.25 | High_lfc (Gene FBXO36, Mageck_Gene level): -0.13 | High_logP (Gene FBXO36, Mageck_Gene level): 0.23 | Low_lfc (Gene FBXO36, Mageck_Gene level): -0.41 | Low_logP (Gene FBXO36, Mageck_Gene level): 0.06 | High_lfc (Gene FBXO38, Mageck_Gene level): -0.17 | High_logP (Gene FBXO38, Mageck_Gene level): 0.01 | Low_lfc (Gene FBXO38, Mageck_Gene level): 0.33 | Low_logP (Gene FBXO38, Mageck_Gene level): 0.72 | High_lfc (Gene FBXO39, Mageck_Gene level): 0 | High_logP (Gene FBXO39, Mageck_Gene level): 0.18 | Low_lfc (Gene FBXO39, Mageck_Gene level): 0.15 | Low_logP (Gene FBXO39, Mageck_Gene level): 0.56 | CRL substrate receptor scoring as top hit (gene required for BRD4 degradation) (KBM7 BRD4-BFP reporter cells, 9 0.5 µM, 10 1 µM, dBET6 10 nM, 6 hours): DCAF11 | High_lfc (gene FBXO3): 0.05 | High_logP (gene FBXO3): 0.25 | Low_lfc (gene FBXO3): -0.2 | Low_logP (gene FBXO3): 0.19 | High_lfc (gene FBXO4): 0.12 | High_logP (gene FBXO4): 0.38 | Low_lfc (gene FBXO4): -0.12 | Low_logP (gene FBXO4): 0.07 | High_lfc (gene FBXO5): -0.26 | High_logP (gene FBXO5): 0.37 | Low_lfc (gene FBXO5): -0.71 | Low_logP (gene FBXO5): 0.02 | High_lfc (gene FBXO6): -0.04 | High_logP (gene FBXO6): 0.23 | Low_lfc (gene FBXO6): -0.19 | Low_logP (gene FBXO6): 0.36 | High_lfc (gene FBXO7): 0.07 | High_logP (gene FBXO7): 0.57 | Low_lfc (gene FBXO7): 0.01 | Low_logP (gene FBXO7): 0.76 | High_lfc (gene FBXO8): 0.03 | High_logP (gene FBXO8): 0.11 | Low_lfc (gene FBXO8): -0.03 | Low_logP (gene FBXO8): 0.11 | High_lfc (gene FBXO9): -0.02 | High_logP (gene FBXO9): 0.04 | Low_lfc (gene FBXO9): -0.02 | Low_logP (gene FBXO9): 0.52 | High_lfc (gene FBXO40): -0.13 | High_logP (gene FBXO40): 0.02 | Low_lfc (gene FBXO40): -0.27 | Low_logP (gene FBXO40): 0.13 | High_lfc (gene FBXO41): 0.17 | High_logP (gene FBXO41): 0.26 | Low_lfc (gene FBXO41): -0.12 | Low_logP (gene FBXO41): 0.01 | High_lfc (gene FBXO42): 0.01 | High_logP (gene FBXO42): 0.18 | Low_lfc (gene FBXO42): 0.28 | Low_logP (gene FBXO42): 1.35 | High_lfc (gene FBXO43): 0.05 | High_logP (gene FBXO43): 0.29 | Low_lfc (gene FBXO43): 0.06 | Low_logP (gene FBXO43): 0.07 | High_lfc (gene FBXO44): 0 | High_logP (gene FBXO44): 0.11 | Low_lfc (gene FBXO44): 0.17 | Low_logP (gene FBXO44): 0.24 | High_lfc (gene FBXO45): 0.31 | High_logP (gene FBXO45): 0.64 | Low_lfc (gene FBXO45): -0.13 | Low_logP (gene FBXO45): 0.16 | High_lfc (gene FBXO46): 0.28 | High_logP (gene FBXO46): 0.48 | Low_lfc (gene FBXO46): 0.32 | Low_logP (gene FBXO46): 1.6 | High_lfc (gene FBXO47): -0.53 | High_logP (gene FBXO47): 0.06 | Low_lfc (gene FBXO47): -0.35 | Low_logP (gene FBXO47): 0.03 | High_lfc (gene FBXO48): -0.41 | High_logP (gene FBXO48): 0.11 | Low_lfc (gene FBXO48): 0 | Low_logP (gene FBXO48): 0.25 | High_lfc (gene FBXW2): -0.12 | High_logP (gene FBXW2): 0.08 | Low_lfc (gene FBXW2): -0.53 | Low_logP (gene FBXW2): 0.05 | High_lfc (gene FBXW4): -0.31 | High_logP (gene FBXW4): 0.02 | Low_lfc (gene FBXW4): 0.22 | Low_logP (gene FBXW4): 0.62 | High_lfc (gene FBXW5): -0.14 | High_logP (gene FBXW5): 0.16 | Low_lfc (gene FBXW5): 0.15 | Low_logP (gene FBXW5): 0.39 | High_lfc (gene FBXW7): 0.41 | High_logP (gene FBXW7): 1.48 | Low_lfc (gene FBXW7): -0.31 | Low_logP (gene FBXW7): 0.05 | High_lfc (gene FBXW8): -0.18 | High_logP (gene FBXW8): 0.19 | Low_lfc (gene FBXW8): 0.19 | Low_logP (gene FBXW8): 0.52 | High_logP (gene FBXW9): 0 | High_lfc (gene FBXW10): -0.05 | High_logP (gene FBXW10): 0.14 | Low_lfc (gene FBXW10): -0.09 | Low_logP (gene FBXW10): 0.05 | High_lfc (gene FBXW11): 0.12 | High_logP (gene FBXW11): 0.29 | Low_lfc (gene FBXW11): -0.29 | Low_logP (gene FBXW11): 0.06 | High_lfc (gene FBXW12): -0.19 | High_logP (gene FBXW12): 0.02 | Low_lfc (gene FBXW12): -0.05 | Low_logP (gene FBXW12): 0.24 | High_logP (gene FEM1A): 0.43
